Consider 14 molecules from patent publication US20230087342A1, “AZEPANE DERIVATIVE” (Nippon Chemiphar Co., Ltd., priority 2019, published 2023).

pEC50: −log10 of the molar value. Like-named read-outs stand apart in the source and are kept apart here.

The target of one data set is T1, human κ opioid receptors (Homo sapiens, UniProt P41145).
T1 construct: host or cells: CHO cells
The experiment in a line: Opioid receptor function test (Lance Ultra cAMP kit, agonist activity). Type of data set: cell-based. The conditions noted are these: CHO cells expressing human κ opioid receptors, 10 μM forskolin, 30 minutes. The procedure, abridged:
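CHO cells expressing human κ opioid receptor incubated 30 min with test compound (10^−14 to 10^−7 M) and 10 μM forskolin in HSS/5 mM HEPES pH 7.4 with 0.5 mM IBMX and 0.1% SA. cAMP measured by TR-FRET (Lance Ultra) 1 h after detection reagent addition.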

A short description of another data set: Metabolic stability test. Type of data set: in vitro ADME. The conditions noted are these: human liver microsomes, 0 to 30 minutes; a hydrochloride was used. How it is done:
To determine the unchanged product-residual ratio of the test compound in the reaction sample, human liver microsomes and the test compound were reacted for a predetermined time (0 to 30 minutes). The unchanged product-residual ratio at a reaction time of 0 hours was considered 100%, the residual ratio after incubation was log-linear plotted with respect to the time, a regression line (y=100 e^−kt, k=slope of the line: elimination rate constant) was determined, and the metabolic clearance CLint (mL/min/kg) was calculated using the following formula.
CLint*=k (−min)×45 (mg MS protein/g liver)×21 (g liver/kg)/MS protein (mg MS protein/mL)
*: Yamazaki S.; Skaptason J.; Romero D, Vekich S.; Jones HM.; Tan W.; Wilner KD.; Koudriakova T. Drug Metab. Dispos. 2011 March; 39 (3): 383-393.

The next data set relates to ICR male mice. The experiment in a line: Mouse acetic acid writhing test. Type of data set: in vivo. The conditions noted are these: hydrochloride; for ED50: Mus musculus, read-out: ED50 value (writhing suppressing effect). How it is done: Mouse Acetic Acid Writhing Test
The analgesic effect of the test compound was evaluated by an acetic acid writhing test. For the experiment, ICR male mice were used and acclimated to a plastic open field for 30 minutes before starting the test. After acclimation, the mice were administered with the test compound (30 to 3000 μg/kg) or water for injection subcutaneously or orally, and once returned to the open field. Thirty minutes after the administration of the test compound, a 0.6% aqueous acetic acid solution was additionally administered to the same mice by intraperitoneal administration. From 10 minutes after administration of the 0.6% aqueous acetic acid solution, the number of writhing reactions (writhing reactions in which the mouse stretches while pressing the abdominal cavity against the floor) induced in the mice was measured for 10 minutes, and the number of writhing reactions was compared with that of a control group (water for injection-administrated group) to evaluate the analgesic effect of the test compound.

T1 sequence (P41145 whole entry): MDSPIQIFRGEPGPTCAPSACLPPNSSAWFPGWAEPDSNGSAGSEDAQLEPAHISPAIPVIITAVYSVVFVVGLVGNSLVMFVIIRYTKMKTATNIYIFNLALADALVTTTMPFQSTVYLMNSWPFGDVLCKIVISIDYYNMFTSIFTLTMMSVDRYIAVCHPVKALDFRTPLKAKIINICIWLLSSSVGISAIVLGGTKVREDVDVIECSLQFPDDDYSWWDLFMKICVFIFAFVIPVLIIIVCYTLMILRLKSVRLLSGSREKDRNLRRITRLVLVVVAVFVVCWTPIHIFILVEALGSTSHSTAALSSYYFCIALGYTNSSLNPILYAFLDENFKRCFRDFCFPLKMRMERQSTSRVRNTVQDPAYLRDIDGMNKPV

On human κ opioid receptors, `Oc1ccc2c(c1)[C@@]13CCN(CCn4cccn4)CC[C@@]1(O)[C@@H](C2)N(CC1CC1)CC3` [Example 45, (5aS,6R,11bS)-3-(2-(1H-pyrazol-1-yl)ethyl)-14-(cyclopropylmethyl)-2,3,4,5,6,7-hexahydro-6,11b-(epiminoethano)naphtho[1,2-d]azepine-5a,10(1H)-diol] had a pEC50 of 9.77. In the data set “Metabolic stability test”, this molecule returned a CLint scaled of 4.5 mL/min/kg. Also, the Writhing suppression rate entry in the data set with ICR male mice (Subcutaneous, dose 30 (μg/kg)) is on record as “++ (60 ≤ % <80: ++)”.
Regarding `Oc1ccc2c(c1)[C@@]13CCN(CCc4cscn4)CC[C@@]1(O)[C@@H](C2)N(CC1CC1)CC3` [Example 34, (5aS,6R,11bS)-14-(cyclopropylmethyl)-3-(2-(thiazol-4-yl)ethyl)-2,3,4,5,6,7-hexahydro-6,11b-(epiminoethano)naphtho[1,2-d]azepine-5a,10(1H)-diol], the pEC50 at human κ opioid receptors was 10.40. Besides, the Writhing suppression rate entry with ICR male mice (Subcutaneous, dose 30 (μg/kg)) is “++ (60 ≤ % <80: ++)”.
Turning to `Cc1cnn(CCN2CC[C@]34CCN(CC5CC5)[C@H](Cc5ccc(O)cc53)[C@]4(O)CC2)c1` [Example 50, (5aS,6R,11bS)-14-(cyclopropylmethyl)-3-(2-(4-methyl-1H-pyrazol-1-yl)ethyl)-2,3,4,5,6,7-hexahydro-6,11b-(epiminoethano)naphtho[1,2-d]azepine-5a,10(1H)-diol], the pEC50 at human κ opioid receptors was 10.57. In the data set “Metabolic stability test”, this molecule displayed a CLint scaled of 8.7 mL/min/kg. Besides, the 50% effective dose (ED50) in the data set with ICR male mice (Oral) is 0.21 mg/kg. In addition, the Writhing suppression rate entry with ICR male mice (Oral, dose 300 (μg/kg)) is reported as “+ (40 ≤ % <60: +)”; in the data set with ICR male mice (Oral, dose 1000 (μg/kg)), “+++ (80 ≤ %: +++)”.
Molecule `O=C(Cc1ccccn1)N1CC[C@]23CCN(CC4CC4)[C@H](Cc4cc(Cl)c(O)cc42)[C@]3(O)CC1` [Example 308, 1-((5aS,6R,11bR)-9-chloro-14-(cyclopropylmethyl)-5a,10-dihydroxy-1,2,5,5a,6,7-hexahydro-6,11b-(epiminoethano)naphtho[1,2-d]azepin-3(4H)-yl)-2-(pyridin-2-yl)ethan-1-one] showed a pEC50 on human κ opioid receptors of 9.22. For the same molecule, in “Metabolic stability test”, the CLint scaled worked out at 9 mL/min/kg. Besides, the ED50 in the data set on ICR male mice (Oral) came to 1.42 mg/kg. Moreover, the Writhing suppression rate result is “+ (40 ≤ % <60: +)” with ICR male mice (Oral, dose 1000 (μg/kg)) and “++ (60 ≤ % <80: ++)” in the data set on ICR male mice (Oral, dose 3000 (μg/kg)).
For `Cc1cc(CCN2CC[C@]34CCN(CC5CC5)[C@H](Cc5ccc(O)cc53)[C@]4(O)CC2)ns1` [Example 177, (5aS,6R,11bS)-14-(cyclopropylmethyl)-3-(2-(5-methylisothiazol-3-yl)ethyl)-2,3,4,5,6,7-hexahydro-6,11b-(epiminoethano)naphtho[1,2-d]azepine-5a,10(1H)-diol], the pEC50 at human κ opioid receptors is 10.72. For the same molecule, the CLint scaled in “Metabolic stability test” turned out to be 9.5 mL/min/kg.
On to `Oc1ccc2c(c1)[C@@]13CCN(CCc4ccccn4)CC[C@@]1(O)[C@@H](C2)N(CC1CC1)CC3` [Example 77, (5aS,6R,11bS)-14-(cyclopropylmethyl)-3-(2-(pyridin-2-yl)ethyl)-2,3,4,5,6,7-hexahydro-6,11b-(epiminoethano)naphtho[1,2-d]azepine-5a,10(1H)-diol], for which the negative-log EC50 (pEC50) on human κ opioid receptors was 10.59. This molecule also came in with an intrinsic metabolic clearance (CLint scaled) in “Metabolic stability test” of 6.7 mL/min/kg. Further, in the data set on ICR male mice (sc, Subcutaneous), the ED50 was found to be 0.0125 mg/kg. Further, the Writhing suppression rate entry with ICR male mice (Subcutaneous, dose 30 (μg/kg)) was “+ (40 ≤ % <60: +)”; in the data set with ICR male mice (Subcutaneous, dose 300 (μg/kg)), “+++ (80 ≤ %: +++)”.
In turn, `Oc1ccc2c(c1)[C@@]13CCN(CCc4ccc5ccccc5n4)CC[C@@]1(O)[C@@H](C2)N(CC1CC1)CC3` [Example 124, (5aS,6R,11bS)-14-(cyclopropylmethyl)-3-(2-(quinolin-2-yl)ethyl)-2,3,4,5,6,7-hexahydro-6,11b-(epiminoethano)naphtho[1,2-d]azepine-5a,10(1H)-diol] showed a pEC50 on human κ opioid receptors of 10.40. In the data set “Metabolic stability test”, the intrinsic metabolic clearance (CLint scaled) amounted to 14.3 mL/min/kg.
The matching figures for `Cc1cnn(CCN2CC[C@]34CCN(CC5CC5)[C@H](Cc5cc(Cl)c(O)cc53)[C@]4(O)CC2)c1` [Example 326, (5aS,6R,11bS)-9-chloro-14-(cyclopropylmethyl)-3-(2-(4-methyl-1H-pyrazol-1-yl)ethyl)-2,3,4,5,6,7-hexahydro-6,11b-(epiminoethano)naphtho[1,2-d]azepine-5a,10(1H)-diol]: 9.74 and 10.9 mL/min/kg.
In the case of `Cc1cnn(CCN2CC[C@]34CCN(CC5CC5)[C@H](Cc5cc(Br)c(O)cc53)[C@]4(O)CC2)c1` [Example 263, (5aS,6R,11bS)-9-bromo-14-(cyclopropylmethyl)-3-(2-(4-methyl-1H-pyrazol-1-yl)ethyl)-2,3,4,5,6,7-hexahydro-6,11b-(epiminoethano)naphtho[1,2-d]azepine-5a,10(1H)-diol], the pEC50 on human κ opioid receptors is 9.05. This molecule had a CLint scaled in “Metabolic stability test” of 18 mL/min/kg.
The molecule `Cc1cnn(C[C@@H](C)N2CC[C@]34CCN(CC5CC5)[C@H](Cc5ccc(O)cc53)[C@]4(O)CC2)c1` [Example 229, (5aS,6R,11bS)-14-(cyclopropylmethyl)-3-((R)-1-(4-methyl-1H-pyrazol-1-yl)propan-2-yl)-2,3,4,5,6,7-hexahydro-6,11b-(epiminoethano)naphtho[1,2-d]azepine-5a,10(1H)-diol] gave a pEC50 at human κ opioid receptors of 10.60. Moreover, the CLint scaled in “Metabolic stability test” is 5.1 mL/min/kg.
Consider `Cc1cnn(CCN2CC[C@]34CCN(CC5CC5)[C@H](Cc5ccc(C(N)=O)cc53)[C@]4(O)CC2)c1` [Example 244, (5aS,6R,11bS)-14-(cyclopropylmethyl)-5a-hydroxy-3-(2-(4-methyl-1H-pyrazol-1-yl)ethyl)-1,2,3,4,5,5a,6,7-octahydro-6,11b-(epiminoethano)naphtho[1,2-d]azepine-10-carboxamide], for which the pEC50 on human κ opioid receptors is 9.33. For the same molecule, the CLint scaled in “Metabolic stability test” amounted to 7.7 mL/min/kg.
On to `NC(=O)c1ccc2c(c1)[C@@]13CCN(C(=O)Cn4cc(C(F)(F)F)cn4)CC[C@@]1(O)[C@@H](C2)N(CC1CC1)CC3` [Example 266, (5aS,6R,11bR)-14-(cyclopropylmethyl)-5a-hydroxy-3-(2-(4-(trifluoromethyl)-1H-pyrazol-1-yl)acetyl)-1,2,3,4,5,5a,6,7-octahydro-6,11b-(epiminoethano)naphtho[1,2-d]azepine-10-carboxamide], for which, at human κ opioid receptors, the pEC50 is 10.13. In the data set “Metabolic stability test”, this molecule returned a CLint scaled of 4.4 mL/min/kg.
For the molecule `O=C(Cc1ccccn1)N1CC[C@]23CCN(CC4CC4)[C@H](Cc4ccc(O)cc42)[C@]3(O)CC1` [Example 22, 1-((5aS,6R,11bR)-14-(cyclopropylmethyl)-5a,10-dihydroxy-1,2,5,5a,6,7-hexahydro-6,11b-(epiminoethano)naphtho[1,2-d]azepin-3(4H)-yl)-2-(pyridin-2-yl)ethan-1-one], on human κ opioid receptors, the pEC50 was 9.89. In the data set “Metabolic stability test”, this molecule came in with an intrinsic metabolic clearance (CLint scaled) of 7.2 mL/min/kg. Besides, in the data set on ICR male mice (Oral), the ED50 amounted to 0.0152 mg/kg. Moreover, the Writhing suppression rate result in the data set with ICR male mice (Oral, dose 30 (μg/kg)) was “+ (40 ≤ % <60: +)”; in the data set with ICR male mice (Oral, dose 300 (μg/kg)), “++ (60 ≤ % <80: ++)”.
At human κ opioid receptors, `COc1c(O)ccc2c1[C@@]13CCN(CCn4cc(C)cn4)CC[C@@]1(O)[C@@H](C2)N(CC1CC1)CC3` [Example 332, (5aS,6R,11bS)-14-(cyclopropylmethyl)-11-methoxy-3-(2-(4-methyl-1H-pyrazol-1-yl)ethyl)-2,3,4,5,6,7-hexahydro-6,11b-(epiminoethano)naphtho[1,2-d]azepine-5a,10(1H)-diol] showed a pEC50 of 9.19. Also, the CLint scaled in “Metabolic stability test” is 9.2 mL/min/kg.
